In brackets after ≈: the same amount, converted by molar mass. Like-named read-outs stand apart in the source and are kept apart here.
Tests used:
KB 8-5 xenograft tumor = test: In vivo antitumor efficacy, drug-resistant KB 8-5 xenograft; design: species or system female nude mice; conditions: for Tumor growth inhibition rate IR: based on RTV on day 22
PC-3 xenograft tumor = test: In vivo antitumor efficacy, PC-3 human prostate cancer xenograft; design: species or system male nude mice; conditions: 5 mg/kg i.v. on days 1, 4, 7; based on RTV on day 19
4T1.2 tumor = test: In vivo antitumor efficacy, 4T1.2 syngeneic murine breast cancer model; design: species or system female BALB/c mice; conditions: 10 mg DOX/kg i.v., three consecutive injections
NCI/ADR-RES cells = test: Intracellular uptake of DOX; assay type: cell-based; conditions: 6 μg/mL DOX, 1 h (similar at 3 h)
[1] = DOX pharmacokinetics after i.v. administration; conditions: 5 mg DOX/kg
[2] = single i.v.; for Animal death: dead/treated mice
[3] = In vitro DOX cumulative release kinetics by dialysis; assay type: physicochemical; conditions: DPBS pH 7.4 with 0.5% Tween 80, 37 °C, 1 mg DOX/mL
4T1.2 cells = test: In vitro cytotoxicity, MTT assay; assay type: cell-based, mouse; conditions: 72 h, DOX concentration

For `COc1cccc2c1C(=O)c1c(O)c3c(c(O)c1C2=O)C[C@@](O)(C(=O)CO)C[C@@H]3O[C@H]1C[C@H](N)[C@H](O)[C@H](C)O1` [DOX, Doxorubicin], the “Tumor growth inhibition rate IR” value (KB 8-5 xenograft tumor; 5 mg/kg i.v. on days 1, 4, 7) was 6.13%, the “Tumor growth inhibition rate IR” value (KB 8-5 xenograft tumor; 7.5 mg/kg i.v. on days 1, 4, 7) was 20.91% and the body weight change (KB 8-5 xenograft tumor; 5 and 7.5 mg/kg i.v. on days 1, 4, 7) was “significant weight loss”. For the same compound, the “Tumor growth inhibition rate IR” value (PC-3 xenograft tumor) was 38.72%, the “mortality from systemic toxicity” value (4T1.2 tumor) was “all of the mice treated with free DOX died from systemic toxicity on day 7” and the “DOX fluorescence signals in cells (confocal imaging)” value (NCI/ADR-RES cells) was “Least amounts of fluorescence signals”. It also gave an AUC [1] of 5430 ± 110 ng·h/mL, a CL [1] of 18.40 ± 2.39 mL/h and a Vd [1] of 25.32 ± 2.15 mL. For the same compound, the t1/2 ([1]; non-compartment model) was 4.20 ± 0.35 h, the Weight loss ([2]; 5 mg/kg) was 2.2% and the Animal death ([2]; 5 mg/kg) was 0/3. The Weight loss ([2]; 10 mg/kg) was 7.8%, the Animal death ([2]; 10 mg/kg) was 0/3 and the Animal death ([2]; 15 mg/kg) was 2/3. The Animal death ([2]; 15 mg/kg, listed as free DOX) was 2 out of 3, the “amount of released DOX” value ([3]; after 74 h) was 96.35% and the DOX released ([3]; first 9 h) was 92.14%. It also gave an IC50 (4T1.2 cells) of 0.1867 µg/mL (≈ 0.343 µM).

Source: article PMC4267990 (Journal of controlled release : official journal of the …, 2014)
